Data: patent publication US9988379B2, “GPR40 receptor agonist, methods of preparing the same, and pharmaceutical compositions containing the same as an active agent” (LG CHEM, LTD., priority 2012, dated 2018)

target: T1, human GPR40 (Homo sapiens, UniProt O14842); experiment: Induction of Ca2+ (calcium flux assay) using human GPR40 expression cell line; format: cell-based; settings: read-out: EC0.5
T1 construct: expressed in transfected cells; host or cells: CHO-K1
Experimental: Evaluation of the Test Compounds for Induction of Ca^2+ Using Human GPR40 Expression Cell Line
The cell line expressing human GPR40 was generated by transfection of the GPR40 expression vector into CHO-K1 cell, and used in the following calcium flux assay.
The cell line was cultured in cell-culture medium (F-12 (Invitrogen) supplemented with 10% (v/v) FBS (Fetal Bovine Serum; Invitrogen), 0.5 mg/ml Geneticin (Invitrogen) and 1% (v/v) Antibiotic-Antimycotic solution (Invitrogen)) under the condition of 5% CO2 and 37° C. For calcium flux assay, the cells were diluted with the cell-culture medium to a concentration of 5×10^5 cells/ml, and the diluted cell suspension was dispensed in amount of 100 μl/well to a 96-well transparent bottom black polystyrene cell culture plate (Corning) and then cultured for 24 hours. The following concentrations of test compounds were added to these cells, and then the changes in intracellular calcium concentration were measured by FlexStation II384 (Molecular Devices). The following solution was prepared before the measurement.
First, a buffer solution for assay was prepared for use in the manufacture of fluorescent dye solution. This buffer solution was prepared by adding 1M HEPES solution (Invitrogen) to HBSS (Hanks' Balanced Salt Solution) (Invitrogen) and then adding 1M NaOH (Nacalai Tesque) to adjust pH to 7.4. Then the fluorescent dye solution was prepared according to the manufacturer's instruction attached to Calcium 5 Assay Kit (Molecular Devices), and the final DMSO concentration was adjusted to 2%.
The fluorescent dye solution was added in an amount of 100 μl/well to supernatant of the cell culture plate cultured for 24 hours. The plate was cultured for 1 hour under the condition of 5% CO2 and 37° C. so that the fluorescent dye was inserted into the cell.
Test compounds (i.e., the compounds prepared in the Examples) dissolved in dimethyl sulfoxide (DMSO ACROS) were diluted 200-fold in the buffer solution for assay to prepare compound solutions corresponding to the respective concentrations. […] 50 μl of the prepared sample solutions was added to each well of 96-well polypropylene plates (NUNC), and thereby a compound plate was prepared. Finally, the compound plate and the cell culture plate cultured for 1 hour with the fluorescent dye were placed in FlexStation II384.
After the above pre-treatment, the change in the intracellular calcium concentration when each concentration of the test compound solutions was added at 50 μl was measured by FlexStation II^384.
Then, the relative activity values depending on the concentration of the compound were plotted using Prism 4 software (GraphPad) to calculate the EC0.5 value.

T1 sequence (O14842 whole entry): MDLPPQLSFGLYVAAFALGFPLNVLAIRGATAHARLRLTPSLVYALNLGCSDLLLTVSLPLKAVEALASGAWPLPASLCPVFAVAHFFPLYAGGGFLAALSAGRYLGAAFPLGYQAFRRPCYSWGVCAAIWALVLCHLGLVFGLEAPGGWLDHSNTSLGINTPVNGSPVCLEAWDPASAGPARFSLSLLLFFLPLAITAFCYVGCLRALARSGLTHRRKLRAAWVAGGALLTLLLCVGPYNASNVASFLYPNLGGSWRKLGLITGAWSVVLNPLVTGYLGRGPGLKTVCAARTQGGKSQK

| Structure (SMILES) | EC50 [nM] |
| --- | --- |
| O=C(O)CCc1ccc(NCc2ccc3ccn(CC4CCCCC4)c3c2Cl)cc1 [Example 11, 3-{4-[(7-chloro-1-cyclohexylmethyl-1H-indol-6-ylmethyl)-amino]-phenyl}-propanoic acid] | 400 |
| CC#C[C@@H](CC(=O)O)c1ccc(OCc2ccc3cnn(C(C)C)c3c2C)cc1 [Example 220, (S)-3-[4-(1-isopropyl-7-methyl-1H-indazol-6-ylmethoxy)-phenyl]-hex-4-ynoic acid] | 3 |
| CC#C[C@@H](CC(=O)O)c1ccc(OCc2ccc3ccn(Cc4ccccc4)c3n2)cc1 [Example 90, (S)-3-[4-(1-benzyl-1H-pyrrolo[2,3-b]pyridin-6-ylmethoxy)-phenyl]-hex-4-ynoic acid] | 10 |
| CC#C[C@@H](CC(=O)O)c1ccc(OCc2ccc3cnn(C4CCCC4)c3c2)cc1 [Example 172, (S)-3-[4-(1-cyclopentyl-1H-indazol-6-ylmethoxy)-phenyl]-hex-4-ynoic acid] | 1 to 50 |
| O=C(O)C[C@@H](c1ccc(OCc2ccc3ccn(Cc4ccc(F)cc4)c3n2)cc1)c1ccon1 [Example 95, (S)-3-{4-[1-(4-fluoro-benzyl)-1H-pyrrolo[2,3-b]pyridin-6-ylmethoxy]-phenyl}-3-isoxazol-3-yl-propanoic acid] | 100 |
| CC#C[C@@H](CC(=O)O)c1ccc(OCc2ccc3ccn(Cc4ccc(C(F)(F)F)cc4)c3c2C)cc1 [Example 29, (S)-3-{4-[7-methyl-1-(4-trifluoromethyl-benzyl)-1H-indol-6-ylmethoxy]-phenyl}-hex-4-ynoic acid] | 70 |
| CC#C[C@@H](CC(=O)O)c1ccc(OCc2ccc3c(c2)c(CC(C)C)nn3C)cc1 [Example 186, (S)-3-[4-(3-isobutyl-1-methyl-1H-indazol-5-ylmethoxy)-phenyl]-hex-4-ynoic acid] | 1 to 50 |
| CC#C[C@@H](CC(=O)O)c1ccc(OCc2ccc3c(CN4CCC(F)(F)C4)nn(CC(C)C)c3c2C)cc1 [Example 230, (S)-3-{4-[3-(3,3-difluoro-pyrrolidin-1-ylmethyl)-1-isobutyl-7-methyl-1H-indazol-6-ylmethoxy]-phenyl}-hex-4-ynoic acid] | 1 to 50 |
| CC#C[C@@H](CC(=O)O)c1ccc(OCc2ccc3c(C)n(CC(C)C)nc3c2)cc1 [Example 179, (S)-3-[4-(2-isobutyl-3-methyl-2H-indazol-6-ylmethoxy)-phenyl]-hex-4-ynoic acid] | 1 to 50 |
| CC#C[C@@H](CC(=O)O)c1ccc(OCc2ccc3nn(CC4CCOC4)cc3c2)cc1 (stereo partly drawn) [Example 154, (S)-3-{4-[2-(tetrahydrofuran-3-ylmethyl)-2H-indazol-5-ylmethoxy]-phenyl}-hex-4-ynoic acid] | ≥ 500 |
| CC#C[C@@H](CC(=O)O)c1ccc(OCc2c(F)cc3ccn(Cc4ccccc4)c3c2C)cc1 [Example 49, (S)-3-[4-(1-benzyl-5-fluoro-7-methyl-1H-indol-6-ylmethoxy)-phenyl]-hex-4-ynoic acid] | 50 to 500 |
| CC#C[C@@H](CC(=O)O)c1ccc(OCc2ccc3c(cnn3Cc3cccnc3)c2)cc1 [Example 147, (S)-3-[4-(1-pyridin-3-ylmethyl-1H-indazol-5-ylmethoxy)-phenyl]-hex-4-ynoic acid] | 1 to 50 |
| CC#C[C@@H](CC(=O)O)c1ccc(OCc2cccc3c(CC(C)C)nn(C)c23)cc1 [Example 207, (S)-3-[4-(3-isobutyl-1-methyl-1H-indazol-7-ylmethoxy)-phenyl]-hex-4-ynoic acid] | 1 to 50 |
| O=C(O)CC1CCCc2cc(OCc3ccc4c(cnn4Cc4ccccc4)c3)ccc21 (stereo not drawn) [Example 119, [6-(1-benzyl-1H-indazol-5-ylmethoxy)-1,2,3,4-tetrahydro-naphthalen-1-yl]-acetic acid] | 60 |
| N#CC(CC(=O)O)c1ccc(OCc2ccc3c(cnn3Cc3ccccc3)c2)cc1 (stereo not drawn) [Example 162, 3-[4-(1-benzyl-1H-indazol-5-ylmethoxy)-phenyl]-3-cyano-propanoic acid] | 20 |
| CC#C[C@@H](CC(=O)O)c1ccc(OCc2cccc3c2cnn3Cc2ccc(F)cc2)cc1 [Example 71, (S)-3-{4-[1-(4-fluoro-benzyl)-1H-indazol-4-ylmethoxy]-phenyl}-hex-4-ynoic acid] | 20 |
| CC#C[C@@H](CC(=O)O)c1ccc(OCc2cnc3c(cnn3CC(C)C)c2)cc1 [Example 156, (S)-3-[4-(1-isobutyl-1H-pyrazolo[3,4-b]pyridin-5-ylmethoxy)-phenyl]-hex-4-ynoic acid] | 20 |

| Structure (SMILES) | EC50 [nM] |
| --- | --- |
| CC#C[C@@H](CC(=O)O)c1ccc(OCc2ccc3c(cnn3CC3CCCO3)c2)cc1 (stereo partly drawn) [Example 151, (S)-3-{4-[1-(tetrahydrofuran-2-ylmethyl)-1H-indazol-5-ylmethoxy]-phenyl}-hex-4-ynoic acid] | 1 to 50 |
| CC#C[C@@H](CC(=O)O)c1ccc(OCc2ccc(C)c3c2cnn3CC(C)C)cc1 [Example 208, (S)-3-[4-(1-isobutyl-7-methyl-1H-indazol-4-ylmethoxy)-phenyl]-hex-4-ynoic acid] | 5 |
| CC#C[C@@H](CC(=O)O)c1ccc(OCc2cccc3c2cnn3CCCC)cc1 [Example 197, (S)-3-[4-(1-butyl-1H-indazol-4-ylmethoxy)-phenyl]-hex-4-ynoic acid] | 5 |
| CC#C[C@@H](CC(=O)O)c1ccc(OCc2ccc(C)c3c2cnn3C(C)C)cc1 [Example 223, (S)-3-[4-(1-isopropyl-7-methyl-1H-indazol-4-ylmethoxy)-phenyl]-hex-4-ynoic acid] | 11 |
| CC#C[C@@H](CC(=O)O)c1ccc(OCc2cccc3nn(Cc4cnc(C)cn4)cc23)cc1 [Example 78, (S)-3-{4-[2-(5-methyl-pyrazin-2-ylmethyl)-2H-indazol-4-ylmethoxy]-phenyl}-hex-4-ynoic acid] | 50 to 500 |
| O=C(O)CCc1ccc(OCc2ccc3cnn(Cc4ccccc4)c3c2)cc1F [Example 106, 3-[4-(1-benzyl-1H-indazol-6-ylmethoxy)-2-fluoro-phenyl]-propanoic acid] | 1 to 50 |
| O=C(O)CCc1ccc(NCc2ccc3ccn(-c4ccsc4)c3c2)cc1 [Example 3, 3-{4-[(1-thiophen-3-yl-1H-indol-6-ylmethyl)-amino]-phenyl}-propanoic acid] | 10 |
| CC#C[C@@H](CC(=O)O)c1ccc(OCc2ccc3cnn(CC(C)(C)C)c3c2)cc1 [Example 182, (S)-3-{4-[1-(2,2-dimethyl-propyl)-1H-indazol-6-ylmethoxy]-phenyl}-hex-4-ynoic acid] | 1 to 50 |
| CC#C[C@@H](CC(=O)O)c1ccc(OCc2ccc3ccn(Cc4cc(F)cc(F)c4)c3c2C)cc1 [Example 52, (S)-3-{4-[1-(3,5-difluoro-benzyl)-7-methyl-1H-indol-6-ylmethoxy]-phenyl}-hex-4-ynoic acid] | 50 to 500 |
| Cc1c(COc2ccc([C@H](CC(=O)O)c3ccon3)cc2)ccc2ccn(Cc3ccccc3)c12 [Example 83, (S)-3-[4-(1-benzyl-7-methyl-1H-indol-6-ylmethoxy)-phenyl]-3-isoxazol-3-yl-propanoic acid] | 10 |
| CC#C[C@@H](CC(=O)O)c1ccc(OCc2ccc3ccn(Cc4ccc(S(C)(=O)=O)cc4)c3c2C)cc1 [Example 27, (S)-3-{4-[1-(4-methanesulfonyl-benzyl)-7-methyl-1H-indol-6-ylmethoxy]-phenyl}-hex-4-ynoic acid] | 30 |
| CC#C[C@@H](CC(=O)O)c1ccc(OCc2ccc3ccn(-c4ccc(F)cc4C)c3c2)cc1 [Example 26, (S)-3-{4-[1-(4-fluoro-2-methyl-phenyl)-1H-indol-6-ylmethoxy]-phenyl}-hex-4-ynoic acid] | 20 |
| CC#C[C@@H](CC(=O)O)c1ccc(OCc2ccc3ccn(Cc4cccc(CS(C)(=O)=O)c4)c3c2C)cc1 [Example 35, (S)-3-{4-[1-(3-methanesulfonylmethyl-benzyl)-7-methyl-1H-indol-6-ylmethoxy]-phenyl}-hex-4-ynoic acid] | 10 |
| CC#C[C@@H](CC(=O)O)c1ccc(OCc2ccc3ccn(Cc4ccc(F)cc4F)c3c2C)cc1 [Example 53, (S)-3-{4-[1-(2,4-difluoro-benzyl)-7-methyl-1H-indol-6-ylmethoxy]-phenyl}-hex-4-ynoic acid] | 50 to 500 |
| CC#C[C@@H](CC(=O)O)c1ccc(OCc2ccc3cnn(CCC)c3c2C)cc1 [Example 221, (S)-3-[4-(7-methyl-1-propyl-1H-indazol-6-ylmethoxy)-phenyl]-hex-4-ynoic acid] | 5 |
| CC#C[C@@H](CC(=O)O)c1ccc(OCc2ccc3c(CN4CCOCC4)nn(CC(C)C)c3c2C)cc1 [Example 215, (S)-3-[4-(1-isobutyl-7-methyl-3-morpholin-4-ylmethyl-1H-indazol-6-ylmethoxy)-phenyl]-hex-4-ynoic acid] | 10 |
